Entries after “also recorded” stand apart in the source; their conditions may differ. Read-outs that look alike come from different tables or passages of the source.
What was measured:
BV2 cells [1] = experiment: LPS induced nitrite release by BV2 in N27-BV2 co-culture (Griess assay); format: cell-based, mice; conditions: LPS 1 μg/ml, 30 hours
N27 cells [2] = experiment: Toxicity to N27 cells induced by conditioned media from LPS activated BV2 cells (MTS assay); format: cell-based, rat; conditions: Example 3, FIG. 3, LPS 1 μg/ml, 30 hours
N27 cells [3] = conditions: 30 hours; for neuroprotective effect on N27 cell survival: Example 2.1; for neuroprotective effect on N27 cell survival / neuronal survival as compared to LPS alone / N27 cell survival (protective effect) vs LPS alone / protective effect in N27 cells: LPS 1 μg/ml; for neuronal survival as compared to LPS alone: Example 2.2; for protective effect in N27 cells: Example 5; for effect of compound alone on the cells, survival, nitrite release or morphology: compound 1 μM without LPS
Protocol: The survival of the N27 cells was then measured using MTS Assay.
N27 (Rat Dopaminergic cells) and BV2 (Mice Glial Cells) cells were co-cultured in Corning HTS Transwell Plates in RPMI Complete media supplemented with 10% HI-FBS, N27 in the lower well of the 24 well plates and BV2 in the 0.4 μm porous permeable support inserted on top of the 24 well for 24 hours at 37° C., 5% CO2. BV2 cells were treated with 1 μg/ml LPS in the presence and absence of 10 μM of CCND-01, CCND-02, CCND-03 and CCND-04, and 10 mM of NAC for 30 hours at 37° C., 5% CO2. The survival of N27 cells was then measured by performing MTS Assay and taking readings at 490 nm after 30 mins of incubation.
MTS assay was performed to determine the percentage N27 survival.

BV2 cells [4] = experiment: LPS induced nitrite release in BV2 cells (Griess assay); format: cell-based, mice; conditions: Example 1; LPS 1 μg/ml, 48 hours, vs LPS alone
Protocol: The immortalized rat mesencephalic dopaminergic cells (N27 cells) were grown in RPMI 1640 medium containing 10% Fetal Bovine Serum (FBS), 2 mM L-glutamine, 50 U Penicillin and 50 μg/ml Streptomycin [22]. Mice microglial cells (BV2 cells) were grown in RPMI 1640 medium containing 10% Heat Inactivated Fetal Bovine Serum (HI-FBS). Cells were maintained in a humidified atmosphere of 5% CO2 at 37° C. until they were 60-70% confluent.
BV2 (Mice Glial Cells) cells were treated with LPS at a concentration of 1 μg/ml in the presence or absence of test compounds PD180970 or AGK-2 at a concentrating ranging from 0.1 nM-[…] and incubated for 48 hours at 37° C. at 5% CO2. Griess assay was used to measure nitrite released in order to investigate the anti-inflammatory potential of the compounds. Untreated BV2 cells was used as blank, 0.1% DMSO in media was used as vehicle. LPS (1 μg/ml) was used as control for nitrite release.

IL-6 = experiment: LPS induced IL-6 secretion by BV2 in N27-BV2 co-culture (Luminex multiplexing assay); format: cell-based, mice; conditions: Example 4.3; LPS 1 μg/ml, compound 1 μM, 30 hours
Protocol: (§1) Luminex multiplexing assay was performed to determine the concentration of IL-6 and MCP-1 released. LPS (1 μg/ml) was used as control for IL-6 release or MCP-1 release.

MCP-1 = experiment: LPS induced MCP-1 secretion by BV2 in N27-BV2 co-culture (Luminex multiplexing assay); format: cell-based, mice; conditions: Example 4.3; LPS 1 μg/ml, compound 1 μM, 30 hours
Protocol: as §1

HEK-Blue™ TLR4 cells = experiment: nF-κB induced SEAP activity in HEK-Blue TLR4 cells; format: cell-based; conditions: LPS 10 ng/ml, compound 1 nM-100 μM, 12 hours
Protocol: (§2) Hek-Blue TLR-2, TLR-3 and TLR-4 Cells were obtained from InvivoGen (San Diego, Calif.). Culture treatment and assay was performed as per the manufacturers recommended protocol. Cells were treated and incubated for 12 hours, followed by collection of OD values at 620 nm.
(§3) HEK-Blue™ TLR4 cells were treated with LPS and HEK-Blue™ TLR2 were treated with Pam3CSK4 at a concentration of 10 ng/ml for 12 hours in the presence or absence of compounds (PD180970 or AGK-2) at a range of 1 nM-100 μM, and assayed for SEAP activity. LPS ([…]) was used as control for SEAP activity. nF-κB induced SEAP activity was quantified using HEK-Blue™ Detection at 620 nm.

HEK-Blue™ TLR2 cells = experiment: nF-κB induced SEAP activity in HEK-Blue TLR2 cells; format: cell-based; conditions: Pam3CSK4 10 ng/ml, compound 1 nM-100 μM, 12 hours
Protocol: as §2, §3

N27 cells [5] = experiment: Hydrogen peroxide induced neurotoxicity in N27 cells (MTS assay); format: cell-based, rat; conditions: 75 μM hydrogen peroxide, compound 0.1 nM-10 μM, 8 hours
Protocol: Cells were co-treated with 75 μM H2O2 in the presence and absence of compounds for 8 hours. Treatments were made in complete RPMI medium containing 2% FBS.
N27 cells were treated with 75 μM hydrogen peroxide in the presence and absence of compounds PD180970 or AGK2 in a concentration range of 0.1 nM-10 μM for 8 hours in 96 well plates. MTS assay was used to check the cell viability in order to investigate the neuroprotective potential of the compounds. Cells with untreated media was used as blank, and cells with media containing 0.1% DMSO (vehicle or solvent for the compounds) was used as vehicle. Hydrogen peroxide (75 μM) treated N27 cells was used as control for.

N27 cells [6] = experiment: MPP+ induced neurotoxicity in N27 cells (MTS assay); format: cell-based, rat; conditions: 300 μM MPP+, compound 0.1 nM-10 μM, 24 hours
Protocol: Cells were co-treated with 300 μM MPP^+ in the presence and absence of compounds for 24 hours. Treatments were made in complete RPMI medium containing 2% FBS.
N27 cells were treated with 300 μM of MPP^+ in the presence and absence of compounds (PD180970 or AGK-2) in a concentration range of 0.1 nM-10 μM and incubated for 24 hours. MPP^+ (300 μM) treated N27 cells was used as control. MTS assay was used to check the cell viability in order to investigate the neuroprotective potential of the compounds. None of the compounds could rescue MPP^+ treated dopaminergic N27 cells.

ERRγ = biological target: T1, ERRγ (Homo sapiens, UniProt P62508); conditions: at concentrations below 10 μM; cited from earlier work
T1 sequence (P62508 1-458): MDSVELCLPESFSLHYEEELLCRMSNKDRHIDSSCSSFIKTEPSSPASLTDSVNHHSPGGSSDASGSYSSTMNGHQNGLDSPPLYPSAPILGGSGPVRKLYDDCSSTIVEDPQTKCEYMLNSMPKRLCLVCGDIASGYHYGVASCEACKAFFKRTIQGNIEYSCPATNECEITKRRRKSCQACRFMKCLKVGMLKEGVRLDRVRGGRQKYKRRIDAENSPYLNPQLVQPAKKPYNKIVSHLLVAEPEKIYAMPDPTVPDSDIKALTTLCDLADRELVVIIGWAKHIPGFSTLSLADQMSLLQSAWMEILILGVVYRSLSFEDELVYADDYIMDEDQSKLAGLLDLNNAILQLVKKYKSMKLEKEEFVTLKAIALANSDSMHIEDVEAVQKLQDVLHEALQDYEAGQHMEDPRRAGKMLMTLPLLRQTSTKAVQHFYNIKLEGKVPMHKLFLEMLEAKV

ERα = biological target: T2, ERα (Homo sapiens, UniProt P03372); conditions: at concentrations below 10 μM; cited from earlier work
T2 sequence (P03372 1-595): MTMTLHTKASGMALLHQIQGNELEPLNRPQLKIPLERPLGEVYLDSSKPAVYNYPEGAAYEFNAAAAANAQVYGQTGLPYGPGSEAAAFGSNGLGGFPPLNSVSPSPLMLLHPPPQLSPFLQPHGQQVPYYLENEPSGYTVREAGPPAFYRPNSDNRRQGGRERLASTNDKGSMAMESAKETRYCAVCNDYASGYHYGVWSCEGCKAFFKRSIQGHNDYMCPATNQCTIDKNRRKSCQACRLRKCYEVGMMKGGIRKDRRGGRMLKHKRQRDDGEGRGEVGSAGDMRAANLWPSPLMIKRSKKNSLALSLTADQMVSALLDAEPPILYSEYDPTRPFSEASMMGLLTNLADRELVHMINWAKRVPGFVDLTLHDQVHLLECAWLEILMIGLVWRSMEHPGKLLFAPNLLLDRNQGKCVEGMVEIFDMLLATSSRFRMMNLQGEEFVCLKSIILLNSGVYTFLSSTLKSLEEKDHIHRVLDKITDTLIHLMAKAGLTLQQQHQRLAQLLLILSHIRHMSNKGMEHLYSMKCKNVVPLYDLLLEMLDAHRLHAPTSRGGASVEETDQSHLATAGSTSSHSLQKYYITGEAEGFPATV

SMILES	protective effect in N27 cells (N27 cells [3]; compound 10 μM)	levels of nitrite released by LPS treated BV2 cells (BV2 cells [4])	level of nitrite released by LPS induced BV2 cells (BV2 cells [1]; Example 2.2, compound 1 μM)	level of nitrite released by LPS induced BV2 cells (BV2 cells [1]; Example 4, compound 1 μM)	neuroprotective effect in N27 cells (N27 cells [2]; compound 10 μM)	level of IL-6 released by LPS induced BV2 cells (IL-6)	level of MCP-1 released by LPS induced BV2 cells (MCP-1)	nF-κB induced SEAP activity (HEK-Blue™ TLR4 cells)	nF-κB induced SEAP activity (HEK-Blue™ TLR2 cells)	neuroprotective effect on H2O2 induced toxicity (N27 cells [5])	neuroprotective effect on MPP+ induced toxicity (N27 cells [6])	neuroprotective effect on N27 cell survival (N27 cells [3]; compound 10 μM)	neuronal survival as compared to LPS alone (N27 cells [3]; compound 1 μM)	N27 cell survival (protective effect) vs LPS alone (N27 cells [3]; Example 4, compound 1 μM)	effect of compound alone on the cells, survival, nitrite release or morphology (N27 cells [3]; Example 4)	other results
CC(=O)N[C@@H](CS)C(=O)O [NAC, N-acetylcysteine]	neuroprotective role	–	–	–	–	–	–	–	–	–	–	–	–	–	–	level of nitrite released by LPS induced BV2 cells (BV2 cells [1]; Example 2.2, NAC 10 mM): significant reduction in level of nitrite; neuroprotective effect in N27 cells (N27 cells [2]; NAC 1 mM): significant neuroprotective effect; neuroprotective effect on N27 cell survival (N27 cells [3]; NAC 10 mM): inhibit neuronal cell death; neuronal survival as compared to LPS alone (N27 cells [3]; NAC 10 mM): significant increase in neuronal survival; N27 cell survival (protective effect) vs LPS alone (N27 cells [3]; Example 4.1, NAC 10 μM): significant protective effect
Cc1ccc(NC(=O)c2ccc(CN3CCN(C)CC3)cc2)cc1Nc1nccc(-c2cccnc2)n1 [Imatinib]	significant protective effect	–	–	–	–	–	–	–	–	–	–	–	–	–	–	–
Cc1cc(Nc2ncc3cc(-c4c(Cl)cccc4Cl)c(=O)n(C)c3n2)ccc1F [PD180970]	significant protective effect	significant reduction in levels of nitrite	significant reduction in level of nitrite	significant decrease in nitrite level; also recorded: significant reduction in level of nitrite	significant neuroprotective effect	significant reduction in level of IL-6	significant reduction in levels of IL-6 and MCP-1	significant inhibitory effect	not in HEK-Blue™ TLR2 cells	no significant neuroprotective effect	no significant neuroprotective effect	significant neuroprotective effect	significant increase in neuronal survival	significant protective effect; also recorded: significant increase in neuronal survival	no effect	–
Cc1cn(-c2cc(NC(=O)c3ccc(C)c(Nc4nccc(-c5cccnc5)n4)c3)cc(C(F)(F)F)c2)cn1 [Nilotinib]	significant protective effect	–	–	–	–	–	–	–	–	–	–	–	–	–	–	–
COc1cc(/C=C(\C#N)C(=O)Nc2nnc(C(F)(F)F)s2)ccc1OCc1ccc(C(F)(F)F)cc1C(F)(F)F [CCND-04]	–	–	–	–	–	–	–	–	–	–	–	–	–	–	–	antagonist activity on ERRγ (ERRγ): no significant antagonist activity; antagonist activity on ERα (ERα): no significant antagonist activity
N#C/C(=C\c1ccc(-c2cc(Cl)ccc2Cl)o1)C(=O)Nc1cccc2ncccc12 [AGK-2]	significant protective effect	significant reduction in levels of nitrite	significant reduction in level of nitrite	significant decrease in nitrite level; also recorded: significant reduction in level of nitrite	significant neuroprotective effect	significant reduction in level of IL-6	significant reduction in levels of IL-6 and MCP-1	significant inhibitory effect	not in HEK-Blue™ TLR2 cells	no significant neuroprotective effect	no significant neuroprotective effect	significant neuroprotective effect	significant increase in neuronal survival	significant protective effect; also recorded: significant increase in neuronal survival	no effect	–

Reference: patent US11324747B2, “Methods and compositions for managing neuroinflammation and neurodegeneration” (CENTRE FOR CELLULAR AND MOLECULAR PLATFORMS, priority 2016, dated 2022)
